From patent publication US20070037833A1, “Compositions and methods for inhibiting neurodegeneration” (priority 2005, published 2007)
Entries after “also recorded” stand apart in the source; their conditions may differ.

Tests used:
[1] = tested on: Akt; experiment: Immunoblot for phosphoAKT in spinal cord cultures; format: cell-based, rat
[2] = tested on: src-family kinases (SFK); experiment: Immunoblot for active SFKs (clone 28 antibody) in spinal cord cultures; format: cell-based, rat; settings: 24 hours treatment
Method: Cells were lysed in 1% NP-40 lysis buffers containing protease inhibitors, subjected to SDS-PAGE and immunoblotted as previously described (Fryer et al., 1999; Fryer et al., 2000). For immunoprecipitation, lysates from 60 mm dishes were pre-cleared by incubation with protein A beads (Santa Cruz), incubated with primary antibody (4 μg/ml)×2 hours then 50 μL of beads added and incubated overnight with gentle agitation at 4° C. Beads were pelleted, washed 5× with 10 mM Tris pH 7.4+0.5 mM EGTA+0.5 mM EDTA+0.1% NP40 before elution in 1× Laemelli sample buffer. Antibody sources: BD Transduction Labs—TrkB and MAP Kinase used at 1:500, Cell Signaling—Akt 1:1000; phosphoTrk (tyr490) 1:1000; phospho p42/44 MAP Kinase (thr 202/tyr204) 1:1000; phosphoAkt (ser473) 1:500; IGFI antibody (tyr 1131) 1:500. Upstate—adenosine A2a 1:1000. Sigma—actin 1:200. Biosource—active src (clone 28) 1:200.
The precise mechanism by which G-protein coupled receptors trans-activate receptor tyrosine kinases is complex and to some extent receptor-subtype specific (Luttrell et al., 1999; Downward, 2003; Piiper and Zeuzem, 2004; Waters et al., 2004). […] If this pathway was operative in spinal cord neurons, then antagonism of adenosine A2a receptors might lead to reduced src activation and antagonism of SFKs might be neuro-protective. Src is negatively regulated by phosphorylation of tyrosine 529 (refers to human src sequence) and an antibody that recognizes a de-phospho epitope in this region (“clone 28”) is a reliable measure of active src and SFKs (Kawakatsu et al., 1996). We began by asking for adenosine A2a receptors and active SFKs are present in the same cells and if so, their subcellular distribution. Pure motor neurons, grown in the presence of BDNF were immunostained with a rabbit anti-adenosine A2a receptor and the clone 28 antibody. One hundred percent of motor neurons expressed both antigens and on dendrites, the immunoreactivity formed discrete fine puncta (FIG. 5a). Many, but not all, puncta were stained with both antibodies. […]

[3] = tested on: motor neurons expressing G59S p150^glued; experiment: Motor neuron death from HSV-expressed mutant p150glued in spinal cord cultures; format: cell-based, rat; settings: 6 days post-infection; treatment daily or every other day
Source text: Various cDNAs were cloned into the PrpUC amplicon plasmid and were used to generate recombinant HSV as previously described (Neve et al., 1997). The titer of viruses used in these studies were routinely 3-5×10^7 plaque-forming units/ml. The cDNA for wild type/mutant SOD and wild type/mutant p150^glued were gifts of D. Borchelt and E. Holzbaur, respectively. The K295R mutant version of chick src was a gift of J. Brugge.
Mutations in superoxide dismutase (SOD) or the p150^glued subunit of dynactin are known to account for a familial form of ALS in a subpopulation of individuals (Rosen, 1993; Puls et al., 2003; Bruijn et al., 2004). We inquired whether expression the mutant forms of SOD or p150^glued caused motor neuron death in vitro and if Trk antagonism was neuroprotective. Recombinant herpes simplex viruses (HSVs) were generated that expressed wild type or mutant form of SOD (G85R) and wild type or mutant p150^glued (G59S). […] Spinal cord cultures were infected with virus at 14 DIV and the number of motor neurons was determined 2, 4, 6 or 8 days later (FIG. 4, panel a.).
We next determined if KW6002 could protect motor neurons from the toxic effects of mutant proteins. Spinal cord cultures were infected with viruses expressing wild type or mutant versions of SOD or p150^glued at 14 DIV, then treated with drug or vehicle for 4 days (FIG. 4, panel b.). […]

[4] = Robeva et al.; cited from earlier work

## CCCn1c(=O)[nH]c(=O)c2[nH]cnc21 [enprofylline, 3-propylxanthine]
[1]; 6 and 24 hours, 100 μM enprofylline, 30 nM CEP-4416
  abundance of phosphoAKT: decrease in the abundance of phosphoAKT and phosphoMAPK at 6 and 24 hours
[1]; 6 hours post drug administration
  phosphorylation of Akt: decreases in the phosphorylation of Trk, MAP kinase and Akt
[1]; 24 hours post drug administration
  abundance of phosphoAKT: robust reduction in phosphoTrk, phosphoMAPK and phosphoAKT
[1]; 48 hours post drug administration
  abundance of phosphoAKT: remained depressed
[2]
  abundance of active SFKs: reduced
[2]; listed as Enprofylline
  abundance of active SFKs: caused a reduction in the abundance of active SFKs
[3]
  motor neuron survival / toxicity of G59S p150glued: significantly greater number of motor neurons; also recorded: completely prevented the toxicity of mutant protein expression
[4]
  bioavailability: good
